The values below are quoted from earlier work in patent publication US6656448B1, “Matrix metalloproteinase inhibitors” (Bristol-Myers Squibb Pharma Company, priority 2000, dated 2003).

The test system of the data set is MMP-2 and MMP-9.

`O=C(NO)C1(CS(=O)(=O)c2ccc(Oc3ccc(Cl)cc3)cc2)CCOCC1` [Example 13]: the “selectivity for MMP-2 and MMP-9” value is “selectivity for MMP-2 and MMP-9”.
